Literature values as cited in patent US6670392B2, “Compositions and methods for the prevention and treatment of human prostate cancer” (Bioadvantex Pharma Inc., priority 2001, dated 2003).

Details: synthetic dl-α-tocopherol as standard; cited from earlier work

Cc1c(C)c2c(c(C)c1O)CC[C@@](C)(CCC[C@H](C)CCC[C@H](C)CCCC(C)C)O2 [d-α-tocopherol]
bioactivity relative to synthetic dl-α-tocopherol: 1.49 times
